Assay results taken from the NIST ThermoML archive (doi:10.1016/j.jct.2017.08.004).

Assay: molar heat capacity at constant pressure
Conditions: 101.33 kPa, Small sample (50 mg) DSC

O[C@H]1[C@H](O)[C@@H](O)[C@H](O)[C@@H](O)[C@H]1O [cis-1,2,3,5-trans-4,6-cyclohexanehexol]
Conditions	molar heat capacity at constant pressure [J/K/mol]
315.15 K, Crystal	232.92
316.15 K, Crystal	233.85
317.15 K, Crystal	235
318.15 K, Crystal	235.92
319.15 K, Crystal	236.78
320 K, Crystal	237.36
320.15 K, Crystal	237.59
321.15 K, Crystal	238.68
322.15 K, Crystal	239.43
323.15 K, Crystal	240.32
324.15 K, Crystal	241.22
325 K, Crystal	241.8
325.15 K, Crystal	242.06
326.15 K, Crystal	242.94
327.15 K, Crystal	243.8
328.15 K, Crystal	244.59
329.15 K, Crystal	245.47
330 K, Crystal	246.17
330.15 K, Crystal	246.24
331.15 K, Crystal	247.08
332.15 K, Crystal	247.89
333.15 K, Crystal	248.82
334.15 K, Crystal	249.61
335 K, Crystal	250.49
335.15 K, Crystal	250.35
336.15 K, Crystal	251.33
337.15 K, Crystal	251.96
338.15 K, Crystal	252.7
339.15 K, Crystal	253.75
340 K, Crystal	254.75
340.15 K, Crystal	254.49
341.15 K, Crystal	255.37
342.15 K, Crystal	256.24
343.15 K, Crystal	257.08
344.15 K, Crystal	258
345 K, Crystal	258.97
345.15 K, Crystal	258.77
346.15 K, Crystal	259.66
347.15 K, Crystal	260.52
348.15 K, Crystal	261.32
349.15 K, Crystal	262.12
350 K, Crystal	263.15
350.15 K, Crystal	262.98
351.15 K, Crystal	263.82
352.15 K, Crystal	264.56
353.15 K, Crystal	265.46
354.15 K, Crystal	266.43
355 K, Crystal	267.28
355.15 K, Crystal	268.62
356.15 K, Crystal	269.08
357.15 K, Crystal	269.64
358.15 K, Crystal	270.31
359.15 K, Crystal	271.05
360 K, Crystal	271.38
360.15 K, Crystal	271.91
361.15 K, Crystal	272.57
362.15 K, Crystal	273.45
363.15 K, Crystal	274.41
364.15 K, Crystal	275.15
365 K, Crystal	275.43
365.15 K, Crystal	275.9
366.15 K, Crystal	276.72
367.15 K, Crystal	277.6
368.15 K, Crystal	278.26
369.15 K, Crystal	279.12
370 K, Crystal	279.44
370.15 K, Crystal	280
371.15 K, Crystal	280.66
372.15 K, Crystal	281.41
373.15 K, Crystal	282.03
374.15 K, Crystal	282.8
375 K, Crystal	283.41
375.15 K, Crystal	283.66
376.15 K, Crystal	284.41
377.15 K, Crystal	285.16
378.15 K, Crystal	286.02
379.15 K, Crystal	286.77
380 K, Crystal	287.33
380.15 K, Crystal	287.5
381.15 K, Crystal	288.2
382.15 K, Crystal	289.07
383.15 K, Crystal	289.93
384.15 K, Crystal	290.58
385 K, Crystal	291.21
385.15 K, Crystal	291.5
386.15 K, Crystal	292.25
387.15 K, Crystal	292.92
388.15 K, Crystal	293.5
389.15 K, Crystal	294.35
390 K, Crystal	295.04
390.15 K, Crystal	295.24
391.15 K, Crystal	295.7
392.15 K, Crystal	296.49
393.15 K, Crystal	297.22
394.15 K, Crystal	297.96
395 K, Crystal	298.83
395.15 K, Crystal	298.67
396.15 K, Crystal	299.31
397.15 K, Crystal	300.06
398.15 K, Crystal	300.77
399.15 K, Crystal	301.51
400 K, Crystal	302.58
400.15 K, Crystal	302.31
401.15 K, Crystal	303.15
402.15 K, Crystal	303.73
403.15 K, Crystal	304.44
404.15 K, Crystal	305.17
405 K, Crystal	306.28
405.15 K, Crystal	306.03
406.15 K, Crystal	306.79
407.15 K, Crystal	307.48
408.15 K, Crystal	308.4
409.15 K, Crystal	309.1
410 K, Crystal	309.94
410.15 K, Crystal	309.8
411.15 K, Crystal	310.58
412.15 K, Crystal	311.34
413.15 K, Crystal	311.98
414.15 K, Crystal	312.89
415 K, Crystal	313.58
415.15 K, Crystal	313.72
416.15 K, Crystal	314.29
417.15 K, Crystal	315.14
418.15 K, Crystal	315.93
419.15 K, Crystal	316.51
420 K, Crystal	317.18
420.15 K, Crystal	317.13
421.15 K, Crystal	317.97
422.15 K, Crystal	318.68
423.15 K, Crystal	319.32
424.15 K, Crystal	320.07
425 K, Crystal	320.78
425.15 K, Crystal	320.77
426.15 K, Crystal	321.54
427.15 K, Crystal	322.27
428.15 K, Crystal	322.94
429.15 K, Crystal	323.6
430 K, Crystal	324.37
430.15 K, Crystal	324.79
431.15 K, Crystal	325.38
432.15 K, Crystal	325.96
433.15 K, Crystal	326.58
434.15 K, Crystal	327.17
435 K, Crystal	327.98
435.15 K, Crystal	328.13
436.15 K, Crystal	328.94
437.15 K, Crystal	329.55
438.15 K, Crystal	330.45
439.15 K, Crystal	331.25
440 K, Crystal	331.62
440.15 K, Crystal	332.08
441.15 K, Crystal	332.75
442.15 K, Crystal	333.52
443.15 K, Crystal	334.28
444.15 K, Crystal	334.91
445 K, Crystal	335.31
445.15 K, Crystal	335.69
446.15 K, Crystal	336.45
447.15 K, Crystal	337.11
448.15 K, Crystal	337.97
449.15 K, Crystal	338.86
450 K, Crystal	339.09
450.15 K, Crystal	339.61
451.15 K, Crystal	340.28
452.15 K, Crystal	340.91
453.15 K, Crystal	341.76
454.15 K, Crystal	342.6
455 K, Crystal	342.97
455.15 K, Crystal	343.62
456.15 K, Crystal	344.29
457.15 K, Crystal	345.24
458.15 K, Crystal	346.14
459.15 K, Crystal	346.94
460 K, Crystal	346.99
460.15 K, Crystal	347.73
461.15 K, Crystal	348.37
462.15 K, Crystal	349.07
463.15 K, Crystal	349.91
464.15 K, Crystal	350.64
465 K, Crystal	351.2
465.15 K, Crystal	351.55
466.15 K, Crystal	352.42
467.15 K, Crystal	353.08
468.15 K, Crystal	353.97
469.15 K, Crystal	354.86
470 K, Crystal	355.62
470.15 K, Crystal	355.7
471.15 K, Crystal	356.6
472.15 K, Crystal	357.44
473.15 K, Crystal	358.19
474.15 K, Crystal	359.01
475 K, Crystal	360.31
475.15 K, Crystal	359.91
476.15 K, Crystal	360.87
477.15 K, Crystal	361.75
478.15 K, Crystal	362.53
479.15 K, Crystal	363.44
480 K, Crystal	365.32
480.15 K, Crystal	364.51
481.15 K, Crystal	365.73
482.15 K, Crystal	366.73
485 K, Crystal	370.71
513.05 K, Liquid	508.49
513.15 K, Liquid	508.52
514.15 K, Liquid	508.4
515 K, Liquid	506.99
515.15 K, Liquid	507.66
516.15 K, Liquid	505.87
517.15 K, Liquid	506.07
518.15 K, Liquid	506.35
519.15 K, Liquid	506.73
520 K, Liquid	507.22
520.15 K, Liquid	506.91
521.15 K, Liquid	507.17
522.15 K, Liquid	507.28
523.15 K, Liquid	507.22
524.15 K, Liquid	507.46
525 K, Liquid	507.46
525.15 K, Liquid	506.85
526.15 K, Liquid	507.2
527.15 K, Liquid	506.47
528.15 K, Liquid	505.89
529.15 K, Liquid	506.19
530 K, Liquid	507.69
530.15 K, Liquid	507.15
531.15 K, Liquid	507.89
532.15 K, Liquid	508.08
533.15 K, Liquid	508.54
534.15 K, Liquid	508.66
535 K, Liquid	507.93
535.15 K, Liquid	508.27
536.15 K, Liquid	508.3
537.15 K, Liquid	508.67
538.15 K, Liquid	508.45
539.15 K, Liquid	508.21
540 K, Liquid	508.16
540.15 K, Liquid	508.39
541.15 K, Liquid	508.54
542.15 K, Liquid	508.33
543.15 K, Liquid	508.45
